Tests used:
Assay type in all cases: physicochemical
[1] = Dye solubility (saturated aqueous solution, spectrophotometric); settings: summary of Table 2
Protocol: Dye solubility was determined with a spectrophotometer in the UV and in the visible spectral region. The spectra of the pure disazo dyes according to the invention were measured in a buffered aqueous solution at a value of pH of 7.0. Saturated aqueous solutions of the dyes were prepared at a temperature of 50° C. These solutions were afterwards cooled down to room temperature and diluted for the measurements after a waiting time of 24 hours in such a way that the absorption at the absorption maximum was between 0.8 and 1.5. This dilution factor allows the calculation of dye solubility.

[2] = Light stability of printed patches (Weather-Ometer, xenon lamp); set-up: key to Light Stability (Class) on Recording Sheet A / Light Stability (Class) on Recording Sheet B / Light Stability (Class) on Recording Sheet C / Light Stability (Class) on Recording Sheet D / Light Stability (Class) on Recording Sheet E / Light Stability (Class) on Recording Sheet F / Light Stability (Class) on Recording Sheet G: A: excellent; B: good; C: satisfactory; D: unsatisfactory; settings: for Light Stability (Class) on Recording Sheet A: A: HP Printing Paper HPP 1122 (paper), 20° C., 50% relative humidity; for Light Stability (Class) on Recording Sheet A / Light Stability (Class) on Recording Sheet B / Light Stability (Class) on Recording Sheet C / Light Stability (Class) on Recording Sheet D / Light Stability (Class) on Recording Sheet E / Light Stability (Class) on Recording Sheet F / Light Stability (Class) on Recording Sheet G: 20 megalux hours; for Light Stability (Class) on Recording Sheet B: B: HP Premium Plus (polymer based); for Light Stability (Class) on Recording Sheet C: C: ILFORD Galerie Smooth Glossy (nanoporous); for Light Stability (Class) on Recording Sheet D: D: ILFORD Printasia Premium Photo Glossy Paper (nanoporous); for Light Stability (Class) on Recording Sheet E: E: ILFORD Galerie Classic Gloss Paper (polymer based); for Light Stability (Class) on Recording Sheet F: F: EPSON Premium Glossy Photo Paper (nanoporous); for Light Stability (Class) on Recording Sheet G: G: CANON Photo Paper Pro PR-101 (nanoporous)
Protocol: (§1) The present invention, as far as it relates to recording liquids, is illustrated by the following examples using the disazo dyes of Table 1 according to the invention and dyes representing the state of the art. For each dye, 100 g of recording liquid were prepared by heating the necessary amount of dye (2.0 g-5.0 g), 6.0 g of ethylene glycol, 3.0 g of propylene-1,2-glycol, 3.0 g of 1-methyl-2-pyrrolidone, 0.3 g of an aqueous solution (50%) of Olin® 10G (available from Arch Chemicals Inc., Norwalk, USA), 0.3 g of Surfinol® 465 (available from Air Products and Chemicals Inc., Allentown, USA) and 0.1 g of Mergal® K 10N (available from Riedel-de-Haën, Seelze, Germany) together with water at a temperature of 50° C. under stirring for approximately 1 hour. The resulting solution was cooled down to a temperature of 20° C., its value of pH was adjusted to 7.5 and the solution was passed through a Millipore® filter of 0.3 μm pore diameter. The dye quantity was adjusted in such a way that the optical density of the printed image was similar for all dyes.
(§2) Homogeneously colored square patches with an approximate density of 1.40 were then printed, using these recording liquids, with an ink jet printer Canon BJC 8500 onto the following recording sheets: • A: HP Printing Paper HPP 1122 (paper) • B: HP Premium Plus (polymer based recording sheet) • C: ILFORD Galerie Smooth Glossy (nanoporous recording sheet) • D: ILFORD Printasia Premium Photo Glossy Paper (nanoporous recording sheet) • E: ILFORD Galerie Classic Gloss Paper (polymer based recording sheet) • F: EPSON Premium Glossy Photo Paper (nanoporous recording sheet) • G: CANON Photo Paper Pro PR-101 (nanoporous recording sheet)
The printed samples were irradiated using a Weather-Ometer® Ci35A (available from Atlas Material Testing Technology, Chicago, USA) with a 6500 W xenon lamp at a temperature of 20° C. and relative humidity of 50% until an illumination of 20 megalux hours was reached. The density loss was measured with a densitometer Spectrolino®. The percent density loss of initial density gives an indication of the light stability of the dyes on the printed recording sheet.

[3] = Stability against degradation by ozone of printed patches; set-up: key: A: excellent; B: good; C: satisfactory; D: unsatisfactory; settings: ozone 1 ppm, 30° C., 50% relative humidity; for Resistance against Degradation by Ozone (Class) on Recording Sheet C: C: ILFORD Galerie Smooth Glossy (nanoporous); for Resistance against Degradation by Ozone (Class) on Recording Sheet D: D: ILFORD Printasia Premium Photo Glossy Paper (nanoporous); for Resistance against Degradation by Ozone (Class) on Recording Sheet F: F: EPSON Premium Glossy Photo Paper (nanoporous); for Resistance against Degradation by Ozone (Class) on Recording Sheet G: G: CANON Photo Paper Pro PR-101 (nanoporous)
Protocol: as §1, §2
The optical density of the colored square patches was measured with a Spectrolino® densitometer. Afterwards, the printed samples were stored for a predetermined time (for example 48 hours) in an ozone chamber, model 903 (available from Satra/Hampden, Great Britain) at a temperature of 30° C., a relative humidity of the air of 50% and an ozone concentration of 1 ppm at a velocity of the circulating, ozone containing air of 13 mm/s. After storage, the samples were re-measured. The density differences of these two measurements, expressed as per cent of the initial density, are an indication of the amount of dye loss due to the exposure to ozone.

Row | solubility (in words) [1] | Light Stability (Class) on Recording Sheet A [2] | Light Stability (Class) on Recording Sheet B [2] | Light Stability (Class) on Recording Sheet C [2] | Light Stability (Class) on Recording Sheet D [2] | Light Stability (Class) on Recording Sheet E [2] | Light Stability (Class) on Recording Sheet F [2] | Light Stability (Class) on Recording Sheet G [2] | Resistance against Degradation by Ozone (Class) on Recording Sheet C [3] | Resistance against Degradation by Ozone (Class) on Recording Sheet D [3] | Resistance against Degradation by Ozone (Class) on Recording Sheet F [3] | Resistance against Degradation by Ozone (Class) on Recording Sheet G [3] | SMILES | light stability on all recording sheets (in words) ([2]; all recording sheets, summary of Table 4)
1 | equally high water solubility | C | A | D | C | C | B | B | A | B | A | A | O=S(=O)([O-])c1cc(/N=N/c2ccc(Nc3nc(NCCCN4CCOCC4)nc(Nc4ccc(/N=N/c5cc(S(=O)(=O)[O-])c6cccc(S(=O)(=O)[O-])c6c5)cc4)n3)cc2)cc2c(S(=O)(=O)[O-])cccc12.[Na+].[Na+].[Na+].[Na+] [Dye No. IV, reference compound] | satisfactory or even unsatisfactory light stability
2 |  | B | A | A | B | B | A | A | A | A | A | A | O=S(=O)([O-])CCNc1nc(Nc2ccc(N=Nc3cc(S(=O)(=O)[O-])c4cccc(S(=O)(=O)[O-])c4c3)cc2)nc(Nc2ccc(N=Nc3cc(S(=O)(=O)[O-])c4cccc(S(=O)(=O)[O-])c4c3)cc2)n1.[Na+].[Na+].[Na+].[Na+].[Na+] [Dye No. 11] | 
